According to patent US12351828B2, “Method for constructing hepatic progenitor cell-like cell bank, cell lines prepared therefrom and application thereof” (SHANGHAI CELLIVER BIOTECHNOLOGY CO., LTD., priority 2019, dated 2025):

Experiments:
Experiment in all cases: Erlotinib-specific hepatotoxicity, in vitro three-dimensional hepatocyte model, PrestoBlue cell viability
Type in all cases: cell-based, human
[1] = test system: fifth hepatocyte model line; conditions: co-cultured 48 hours, 0.24-250 μMol/L, FIG. 6e
Excerpt: (§1) The in vitro three-dimensional hepatocyte model is constructed by using the hepatic progenitor cell-like cell bank. The method for constructing the in vitro three-dimensional hepatocyte model is stated in the “Expansion and Differentiation of Human Hepatocyte-derived Liver Progenitor-like Cells and Their Use for the Study of Hepatotropic Pathogens” published in Volume 29, Issue 1, 2018, Cell Research, and is not repeated here. In the process of constructing the in vitro three-dimensional hepatocyte model, a first hepatocyte model line, a second hepatocyte model line, a third hepatocyte model line, a fourth hepatocyte model line, a fifth hepatocyte model line and a sixth hepatocyte model line are obtained by the first immortal hepatic progenitor cell-like cell line, the second immortal hepatic progenitor cell-like cell line, the third immortal hepatic progenitor cell-like cell line, the fourth immortal hepatic progenitor cell-like cell line, the fifth immortal hepatic progenitor cell-like cell line and the sixth immortal hepatic progenitor cell-like cell line, respectively.
(§2) In the embodiment of the present invention, the specific toxic drug Erlotinib is used to characterize the specific hepatotoxicity of the in vitro three-dimensional hepatocyte model.
(§3) Preparing a Erlotinib solutions with concentrations of 250 μMol/L, 62.5 μMol/L, 15.625 μMol/L, 3.9 μMol/L, 0.97 μMol/L, 0.24 μMol/L by dimethyl sulfoxide (DMSO), and using DMSO as a blank reference.
(§4) Each hepatocyte model line in the in vitro three-dimensional hepatocyte model is co-cultured with different concentrations of Erlotinib aqueous solution for 48 hours.
(§5) After the co-culture is completed, the PrestoBlue™ cell viability testing reagent produced by Life Technologies is used to characterize the Erlotinib-specific hepatotoxicity in each culture obtained after the co-culture, respectively. The specific methods for the co-culture and the characterization of the Erlotinib-specific hepatotoxicity are common methods known by those skilled in the art and will not be repeated here.

[2] = test system: first hepatocyte model line; conditions: co-cultured 48 hours, 0.24-250 μMol/L, FIG. 6a
Excerpt: as §1, §2, §3, §4, §5

[3] = test system: fourth hepatocyte model line; conditions: co-cultured 48 hours, 0.24-250 μMol/L, FIG. 6d
Excerpt: as §1, §2, §3, §4, §5

[4] = test system: second hepatocyte model line; conditions: co-cultured 48 hours, 0.24-250 μMol/L, FIG. 6b
Excerpt: as §1, §2, §3, §4, §5

[5] = test system: sixth hepatocyte model line; conditions: co-cultured 48 hours, 0.24-250 μMol/L, FIG. 6f
Excerpt: as §1, §2, §3, §4, §5

[6] = test system: third hepatocyte model line; conditions: co-cultured 48 hours, 0.24-250 μMol/L, FIG. 6c
Excerpt: as §1, §2, §3, §4, §5

Measured: cell viability with the increase in the concentration of Erlotinib solution

C#Cc1cccc(Nc2ncnc3cc(OCCOC)c(OCCOC)cc23)c1 [Erlotinib]
significant downward trend: [3] | [6]
basically does not significant changed: [1] | [2] | [4] | [5]
